Laboratory results: ChEMBL document CHEMBL2150933 (J Med Chem, 2012)

Key:
IGROV-1 = assay: Cytotoxicity against human IGROV1 cells after 48 hrs by SRB assay; type: functional; conditions: IGROV-1, 48 h, read-out: pGI50 (converted)
HCT-15 = assay: Cytotoxicity against human HCT15 cells after 48 hrs by SRB assay; type: functional; conditions: HCT-15, 48 h
LOX IMVI = assay: Cytotoxicity against human LOXIMVI cells after 48 hrs by SRB assay; type: functional
MDA-MB-231 = assay: Cytotoxicity against human MDA-MB-231 cells after 48 hrs by SRB assay; type: functional; conditions: MDA-MB-231, 48 h
[1] = Toxicity in iv dosed CD1 mouse administered as single dose; type: organism-based; conditions: in vivo
Malme-3M = assay: Cytotoxicity against human MALME-3M cells after 48 hrs by SRB assay; type: functional
SW-620 = assay: Cytotoxicity against human SW620 cells after 48 hrs by SRB assay; type: functional; conditions: SW-620, 48 h
UACC-257 = assay: Cytotoxicity against human UACC257 cells after 48 hrs by SRB assay; type: functional; conditions: UACC-257, 48 h
NCI-H460 = assay: Cytotoxicity against human NCI-H460 cells after 48 hrs by SRB assay; type: functional; conditions: NCI-H460, 48 h
Hs-578T = assay: Cytotoxicity against human Hs578T cells after 48 hrs by SRB assay; type: functional
[2] = Cytotoxicity against human 786-O cells after 48 hrs by SRB assay; type: functional; conditions: 786-0, 48 h
NCI-H23 = assay: Cytotoxicity against human NCI-H23 cells after 48 hrs by SRB assay; type: functional; conditions: NCI-H23, 48 h
MDA-MB-468 = assay: Cytotoxicity against human MDA-MB-468 cells after 48 hrs by SRB assay; type: functional; conditions: MDA-MB-468, 48 h
SK-OV-3 = assay: Cytotoxicity against human SKOV3 cells after 48 hrs by SRB assay; type: functional; conditions: SK-OV-3, 48 h
HT-29 = assay: Cytotoxicity against human HT-29 cells after 48 hrs by SRB assay; type: functional; conditions: HT-29, 48 h
SF-268 = assay: Cytotoxicity against human SF268 cells after 48 hrs by SRB assay; type: functional; conditions: SF-268, 48 h
A549 [3] = assay: Cytotoxicity against human A549 cells after 48 hrs by SRB assay; type: functional; conditions: A549, 48 h, read-out: pGI50 (converted)
UO-31 = assay: Cytotoxicity against human UO31 cells after 48 hrs by SRB assay; type: functional; conditions: UO-31, 48 h
EKVX = assay: Cytotoxicity against human EKVX cells after 48 hrs by SRB assay; type: functional
HOP-92 = assay: Cytotoxicity against human HOP92 cells after 48 hrs by SRB assay; type: functional; conditions: HOP-92, 48 h
KM12 = assay: Cytotoxicity against human KM12 cells after 48 hrs by SRB assay; type: functional; conditions: KM12, 48 h
CAKI-1 = assay: Cytotoxicity against human Caki1 cells after 48 hrs by SRB assay; type: functional; conditions: CAKI-1, 48 h
SK-MEL-5 = assay: Cytotoxicity against human SK-MEL-5 cells after 48 hrs by SRB assay; type: functional; conditions: SK-MEL-5, 48 h, read-out: pGI50 (converted)
SN12C = assay: Cytotoxicity against human SN12C cells after 48 hrs by SRB assay; type: functional
MDA-MB-435 = assay: Cytotoxicity against human MDA-MB-435 cells after 48 hrs by SRB assay; type: functional; conditions: MDA-MB-435, 48 h
ACHN = assay: Cytotoxicity against human ACHN cells after 48 hrs by SRB assay; type: functional
CCRF-CEM = assay: Cytotoxicity against human CCRF-CEM cells after 48 hrs by SRB assay; type: functional
OVCAR-3 = assay: Cytotoxicity against human OVCAR3 cells after 48 hrs by SRB assay; type: functional; conditions: OVCAR-3, 48 h
MOLT-4 = assay: Cytotoxicity against human MOLT4 cells after 48 hrs by SRB assay; type: functional; conditions: MOLT-4, 48 h
BXPC-3 = assay: Cytotoxicity against human BxPC3 cells after 72 hrs by MTT assay; type: functional; conditions: BXPC-3, 72 h
RPMI-8226 = assay: Cytotoxicity against human RPMI8226 cells after 48 hrs by SRB assay; type: functional; conditions: RPMI-8226, 48 h
NCI-H226 = assay: Cytotoxicity against human NCI-H226 cells after 48 hrs by SRB assay; type: functional; conditions: NCI-H226, 48 h
SR = assay: Cytotoxicity against human SR cells after 48 hrs by SRB assay; type: functional
K562 = assay: Cytotoxicity against human K562 cells after 48 hrs by SRB assay; type: functional; conditions: K562, 48 h
BT-549 = assay: Cytotoxicity against human BT549 cells after 48 hrs by SRB assay; type: functional; conditions: BT-549, 48 h
T47D = assay: Cytotoxicity against human T47D cells after 48 hrs by SRB assay; type: functional
SK-MEL-28 = assay: Cytotoxicity against human SK-MEL-28 cells after 48 hrs by SRB assay; type: functional; conditions: SK-MEL-28, 48 h
SF-295 = assay: Cytotoxicity against human SF295 cells after 48 hrs by SRB assay; type: functional; conditions: SF-295, 48 h, read-out: pGI50 (converted)
HCT-116 = assay: Cytotoxicity against human HCT116 cells after 48 hrs by SRB assay; type: functional; conditions: HCT-116, 48 h
U-251 = assay: Cytotoxicity against human U251 cells after 48 hrs by SRB assay; type: functional; conditions: U-251, 48 h, read-out: pGI50 (converted)
MCF7 = assay: Cytotoxicity against human MCF7 cells after 48 hrs by SRB assay; type: functional; conditions: MCF7, 48 h
HCC 2998 = assay: Cytotoxicity against human HCC2998 cells after 48 hrs by SRB assay; type: functional; conditions: HCC 2998, 48 h
NCI-H522 = assay: Cytotoxicity against human NCI-H522 cells after 48 hrs by SRB assay; type: functional; conditions: NCI-H522, 48 h
DU-145 = assay: Cytotoxicity against human DU145 cells after 48 hrs by SRB assay; type: functional; conditions: DU-145, 48 h
COLO 205 [4] = assay: Cytotoxicity against human COLO205 cells after 48 hrs by SRB assay; type: functional; conditions: COLO 205, 48 h
SF-539 = assay: Cytotoxicity against human SF539 cells after 48 hrs by SRB assay; type: functional; conditions: SF-539, 48 h
COLO 205 [5] = assay: Cytotoxicity against human COLO205 cells after 72 hrs by MTT assay; type: functional; conditions: COLO 205, 72 h
SK-MEL-2 = assay: Cytotoxicity against human SK-MEL-2 cells after 48 hrs by SRB assay; type: functional; conditions: SK-MEL-2, 48 h
TK-10 = assay: Cytotoxicity against human TK10 cells after 48 hrs by SRB assay; type: functional; conditions: TK-10, 48 h
[6] = Cytotoxicity against human NCI-ADR-RES cells after 48 hrs by SRB assay; type: functional
A498 = assay: Cytotoxicity against human A498 cells after 48 hrs by SRB assay; type: functional; conditions: A498, 48 h
M14 = assay: Cytotoxicity against human M14 cells after 48 hrs by SRB assay; type: functional; conditions: M14, 48 h
PC-3 = assay: Cytotoxicity against human PC3 cells after 48 hrs by SRB assay; type: functional; conditions: PC-3, 48 h
SNB-75 = assay: Cytotoxicity against human SNB75 cells after 48 hrs by SRB assay; type: functional; conditions: SNB-75, 48 h
HL-60 = assay: Cytotoxicity against human HL60 cells after 48 hrs by SRB assay; type: functional; conditions: HL-60, 48 h
RXF 393 = assay: Cytotoxicity against human RXF393 cells after 48 hrs by SRB assay; type: functional; conditions: RXF 393, 48 h
SNB-19 = assay: Cytotoxicity against human SNB19 cells after 48 hrs by SRB assay; type: functional; conditions: SNB-19, 48 h
OVCAR-5 = assay: Cytotoxicity against human OVCAR5 cells after 48 hrs by SRB assay; type: functional; conditions: OVCAR-5, 48 h
A549 [7] = assay: Cytotoxicity against human A549 cells after 72 hrs by MTT assay; type: functional; conditions: A549, 72 h
UACC-62 = assay: Cytotoxicity against human UACC62 cells after 48 hrs by SRB assay; type: functional; conditions: UACC-62, 48 h
OVCAR-8 = assay: Cytotoxicity against human OVCAR8 cells after 48 hrs by SRB assay; type: functional; conditions: OVCAR-8, 48 h, read-out: pGI50 (converted)
HOP-62 = assay: Cytotoxicity against human HOP62 cells after 48 hrs by SRB assay; type: functional; conditions: HOP-62, 48 h
OVCAR-4 = assay: Cytotoxicity against human OVCAR4 cells after 48 hrs by SRB assay; type: functional; conditions: OVCAR-4, 48 h

For CO[C@H](C(=O)C(C)=O)[C@@H]1Cc2cc3cc(O[C@H]4C[C@@H](O[C@H]5C[C@@H](O)[C@H](O)[C@@H](C)O5)[C@H](O)[C@@H](C)O4)c(C)c(O)c3c(O)c2C(=O)[C@H]1O[C@H]1C[C@@H](O[C@H]2C[C@@H](O[C@H]3C[C@H](O)[C@H](O)[C@@H](C)O3)[C@H](O)[C@@H](C)O2)[C@H](O)[C@@H](C)O1, the GI50 (IGROV-1) was 23.4 nM, the GI50 (HCT-15) was 182 nM and the GI50 (LOX IMVI) was 13.5 nM. It also gave a GI50 (MDA-MB-231; read-out: GI50) of 63 nM, a GI50 (MDA-MB-231; read-out: pGI50 (converted)) of 66.1 nM and an MTD [1] of 4 mg/kg. The GI50 (Malme-3M) was 34.7 nM, the GI50 (SW-620) was 24 nM and the GI50 (UACC-257) was 58.9 nM. The GI50 (NCI-H460) was 17.8 nM, the GI50 (Hs-578T) was 16.2 nM and the GI50 [2] was 25.1 nM. The GI50 (NCI-H23) was 14.8 nM, the GI50 (MDA-MB-468) was 23.4 nM and the GI50 (SK-OV-3) was 25.1 nM. It also gave a GI50 (HT-29) of 24.6 nM, a GI50 (SF-268) of 18.6 nM and a GI50 (A549 [3]) of 24.6 nM. The GI50 (UO-31) was 126 nM, the GI50 (EKVX) was 91.2 nM and the GI50 (HOP-92) was 19.9 nM. For the same compound, the GI50 (KM12) was 12.9 nM, the GI50 (CAKI-1) was 126 nM and the GI50 (SK-MEL-5) was 22.4 nM. For the same compound, the GI50 (SN12C) was 24.6 nM, the GI50 (MDA-MB-435) was 25.1 nM and the GI50 (ACHN) was 74.1 nM. It also gave a GI50 (CCRF-CEM) of 24 nM, a GI50 (OVCAR-3) of 19.9 nM and a GI50 (MOLT-4) of 27.5 nM. For the same compound, the GI50 (BXPC-3) was 300 nM, the GI50 (RPMI-8226) was 15.8 nM and the GI50 (NCI-H226) was 34.7 nM. It also gave a GI50 (SR) of 11.8 nM, a GI50 (K562) of 19.5 nM and a GI50 (BT-549) of 13.5 nM. The GI50 (T47D) was 33.9 nM, the GI50 (SK-MEL-28) was 20.9 nM and the GI50 (SF-295) was 17 nM. For the same compound, the GI50 (HCT-116) was 14.8 nM, the GI50 (U-251) was 17.4 nM and the GI50 (MCF7) was 19.9 nM. It also gave a GI50 (HCC 2998) of 12.9 nM, a GI50 (NCI-H522) of 19.9 nM and a GI50 (DU-145) of 25.1 nM. It also gave a GI50 (COLO 205 [4]; read-out: GI50) of 32 nM, a GI50 (COLO 205 [4]; read-out: pGI50 (converted)) of 30.2 nM and a GI50 (SF-539) of 20.9 nM. The GI50 (COLO 205 [5]) was 300 nM, the GI50 (SK-MEL-2) was 15.1 nM and the GI50 (TK-10) was 85.1 nM. The GI50 [6] was 1660 nM, the GI50 (A498) was 47.9 nM and the GI50 (M14) was 36.3 nM. It also gave a GI50 (PC-3) of 22.9 nM, a GI50 (SNB-75) of 11 nM and a GI50 (HL-60) of 17.4 nM. It also gave a GI50 (RXF 393) of 13.5 nM, a GI50 (SNB-19) of 17 nM and a GI50 (OVCAR-5) of 30.9 nM. The GI50 (A549 [7]) was 300 nM, the GI50 (UACC-62) was 13.5 nM and the GI50 (OVCAR-8) was 25.7 nM. For the same compound, the GI50 (HOP-62) was 16.6 nM and the GI50 (OVCAR-4) was 72.4 nM.
